Data as given in ChEMBL document CHEMBL1139949, “Structure-activity relationship, kinetic mechanism, and selectivity for a new class of ubiquitin C-terminal hydrolase-L1 (UCH-L1) inhibitors” (Bioorg Med Chem Lett, 2007).
Active and inactive are the calls of the source. The rule behind the calls is not given here.

Tests used:
Papain (Carica papaya) = target: T1, Papain (Carica papaya) (UniProt P00784); assay: Inhibition of papain at 40 uM
T1 sequence (whole entry): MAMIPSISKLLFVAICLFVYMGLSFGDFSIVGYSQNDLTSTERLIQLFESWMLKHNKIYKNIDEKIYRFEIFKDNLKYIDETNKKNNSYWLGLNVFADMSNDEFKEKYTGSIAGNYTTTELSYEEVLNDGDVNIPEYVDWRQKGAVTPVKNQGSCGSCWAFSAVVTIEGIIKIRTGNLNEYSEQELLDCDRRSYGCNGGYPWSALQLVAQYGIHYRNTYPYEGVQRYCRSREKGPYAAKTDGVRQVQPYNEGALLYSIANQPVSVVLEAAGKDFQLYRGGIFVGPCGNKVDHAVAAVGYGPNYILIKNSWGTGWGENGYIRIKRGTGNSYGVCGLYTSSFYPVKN

Caspase-3 (Homo sapiens) = target: T2, Caspase-3 (Homo sapiens) (UniProt P42574); assay: Inhibition of caspase 3 at 40 uM
T2 sequence (whole entry): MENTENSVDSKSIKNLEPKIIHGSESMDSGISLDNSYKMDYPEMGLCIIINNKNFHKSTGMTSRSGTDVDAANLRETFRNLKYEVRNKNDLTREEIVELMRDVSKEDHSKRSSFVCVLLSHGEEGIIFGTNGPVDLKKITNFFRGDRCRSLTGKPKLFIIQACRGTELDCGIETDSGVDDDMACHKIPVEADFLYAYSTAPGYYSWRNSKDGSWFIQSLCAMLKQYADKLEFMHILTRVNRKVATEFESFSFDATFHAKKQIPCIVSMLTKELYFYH

N2a = assay: Cytotoxicity against serum-starved mouse N2A cells at 0.1 mM; format: cell-based; conditions: 100 µM
[1] = target: T3, Ubiquitin carboxyl-terminal hydrolase isozyme L3 (Homo sapiens) (UniProt P15374); assay: Inhibition of UCHL3 at 20 uM
T3 sequence (whole entry): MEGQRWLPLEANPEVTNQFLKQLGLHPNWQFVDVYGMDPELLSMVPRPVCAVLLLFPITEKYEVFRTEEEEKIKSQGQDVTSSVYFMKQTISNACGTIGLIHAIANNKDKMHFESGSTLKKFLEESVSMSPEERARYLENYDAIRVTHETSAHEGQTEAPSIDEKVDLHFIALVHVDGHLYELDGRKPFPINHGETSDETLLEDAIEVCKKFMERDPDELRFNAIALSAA

[2] = target: T4, Protein-glutamine gamma-glutamyltransferase (Homo sapiens) (UniProt P21980); assay: Inhibition of TGase 2 at 40 uM
T4 sequence (whole entry): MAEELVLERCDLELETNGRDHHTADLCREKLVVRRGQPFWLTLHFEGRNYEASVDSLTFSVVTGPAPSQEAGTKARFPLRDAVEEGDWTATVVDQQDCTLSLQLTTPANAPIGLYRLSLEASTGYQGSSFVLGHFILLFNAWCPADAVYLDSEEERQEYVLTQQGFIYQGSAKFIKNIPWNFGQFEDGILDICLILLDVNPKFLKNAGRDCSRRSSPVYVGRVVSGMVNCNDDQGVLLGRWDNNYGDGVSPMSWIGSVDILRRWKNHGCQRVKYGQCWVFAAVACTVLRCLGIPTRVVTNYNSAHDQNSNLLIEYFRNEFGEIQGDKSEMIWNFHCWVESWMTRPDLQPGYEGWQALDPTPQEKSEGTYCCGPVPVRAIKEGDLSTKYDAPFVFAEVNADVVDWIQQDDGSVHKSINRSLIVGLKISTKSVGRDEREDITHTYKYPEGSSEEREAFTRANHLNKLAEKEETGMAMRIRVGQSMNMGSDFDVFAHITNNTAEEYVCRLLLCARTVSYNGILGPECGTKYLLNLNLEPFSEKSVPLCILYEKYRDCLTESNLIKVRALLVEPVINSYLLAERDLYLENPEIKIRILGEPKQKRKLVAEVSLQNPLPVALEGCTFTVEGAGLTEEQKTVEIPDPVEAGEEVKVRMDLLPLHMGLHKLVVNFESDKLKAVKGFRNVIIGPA

[3] = target: T5, Ubiquitin carboxyl-terminal hydrolase 5 (Homo sapiens) (UniProt P45974); assay: Inhibition of isopeptidase T at 40 uM
T5 sequence (whole entry): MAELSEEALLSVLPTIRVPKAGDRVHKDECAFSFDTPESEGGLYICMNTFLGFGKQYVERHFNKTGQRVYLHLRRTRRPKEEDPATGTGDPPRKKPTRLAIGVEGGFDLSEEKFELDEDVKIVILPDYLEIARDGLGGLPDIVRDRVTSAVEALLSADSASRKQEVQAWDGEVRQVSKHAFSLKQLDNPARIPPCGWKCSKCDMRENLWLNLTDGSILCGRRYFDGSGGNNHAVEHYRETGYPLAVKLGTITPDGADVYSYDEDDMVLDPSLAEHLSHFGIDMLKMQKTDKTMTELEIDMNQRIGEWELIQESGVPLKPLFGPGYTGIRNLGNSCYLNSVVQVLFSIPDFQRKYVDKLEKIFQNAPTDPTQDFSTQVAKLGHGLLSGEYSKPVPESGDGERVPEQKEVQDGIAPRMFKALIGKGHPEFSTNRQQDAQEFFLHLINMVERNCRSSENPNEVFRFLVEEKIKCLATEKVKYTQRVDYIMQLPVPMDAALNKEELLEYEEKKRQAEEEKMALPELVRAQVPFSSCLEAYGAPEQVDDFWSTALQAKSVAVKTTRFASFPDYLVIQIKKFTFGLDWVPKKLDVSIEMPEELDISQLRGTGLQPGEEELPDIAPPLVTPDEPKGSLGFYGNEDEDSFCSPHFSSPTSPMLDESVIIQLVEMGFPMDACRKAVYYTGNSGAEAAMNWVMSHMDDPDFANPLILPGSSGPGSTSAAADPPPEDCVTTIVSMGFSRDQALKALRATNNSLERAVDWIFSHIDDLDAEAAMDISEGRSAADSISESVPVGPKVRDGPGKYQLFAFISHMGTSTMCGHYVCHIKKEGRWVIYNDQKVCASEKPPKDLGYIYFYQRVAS

| Activity (Papain (Carica papaya)) | Activity (Caspase-3 (Homo sapiens)) | Activity [1] | Activity [2] | Activity [3] | inhibition [1] [%] | SMILES | Activity (N2a) |
| --- | --- | --- | --- | --- | --- | --- | --- |
| inactive | – | – | – | – | – | Nc1c(C(=O)c2ccc(Cl)cc2)sc2[nH]c(=O)c(C(=O)O)cc12 | – |
| inactive | inactive | inactive | inactive | – | – | Cl.Nc1c(C(=O)c2ccccc2)sc2[nH]c(=O)c(C(=O)O)cc12 | Non-toxic |
| inactive | – | – | – | inactive | 30 | Cc1ccc(C(=O)c2sc3[nH]c(=O)c(C(=O)O)cc3c2N)cc1 | – |
